Test results taken from patent US4175081A, “5-Substituted thiadiazole ureas” (priority 1977, dated 1979).

Assays:
Crabgrass (CG) [1] = assay: Pre-emergence herbicide test; type: in vivo, Digitaria sanquinalis; details: Digitaria sanguinalis, pre-emergence, 336 h, two weeks after treatment; for pest or weed control at 8966.8 g/ha: 8 lb/acre
Protocol: (§1) Crabgrass (CG)--Digitaria sanquinalis
(§2) All crop and weed species were planted individually in 3' plastic pots containing potting soil. Four seeds each of corn, cotton, and snapbeans were seeded to a depth equal to the diameter of the seed. All other species were surface seeded and sprinkled with screened soil in an amount sufficient to cover the seed. Immediately after planting, all pots were watered by sub-irrigation in greenhouse trays. Pots for the pre-emergence phase were seeded one day before treatment.
(§3) Spray hood constants required to deliver the above volume are as follows:
(§4) Formulations for spray applications were prepared in 50 ml volumes with the following three components: […]
(§5) Spray applications were made in a hood containing a removable belt and fixed spray nozzle. For passage through the spray hood, one pot of each specie (pre-emergence phase) was placed on the rear half of the flat. Treatments were removed to the greenhouse after spraying. Watering during the observation period was done only by sub-irrigation.
(§6) Two weeks after treatment, pre- and post-emergence injury or control was visually rated, and the results were as shown in the following tables. Pre-emergence data are provided in TABLE III and post-emergence data are provided in TABLE IV, for compounds having the formula illustrated in TABLE I. Correspondingly, pre-emergence and post-emergence data, respectively, are set forth in TABLES V AND VI, for compounds having the formula illustrated in TABLE II.

Johnson grass (JG) [2] = assay: Pre-emergence herbicide test; type: in vivo, Sorgum helepense; details: Sorghum halepense, 336 h, two weeks after treatment; for pest or weed control at 8966.8 g/ha: 8 lb/acre
Protocol: (§7) Johnson grass (JG)--Sorgum helepense
as §2
(§8) Compounds were tested at rates of application equivalent to 8 lbs. of actual compound per acre in a spray volume of 38 gallons per acre. Spray hood constants required to deliver the above volume are as follows:
(§9) Formulations for spray applications were prepared in 50 ml volumes with the following three components:
(§10) Formulations for the 4 lbs/acre rate were prepared by adjusting the amount of active ingredient accordingly.
as §5, §6

Barnyard grass (BG) [3] = assay: Pre-emergence herbicide test; type: in vivo; details: Echinochloa crus-galli, 336 h, two weeks after treatment; for pest or weed control at 8966.8 g/ha: 8 lb/acre
Protocol: (§11) Barnyard grass (BG)--Echinochloa crus-galli
as §2, §8, §9, §10, §5, §6

Turnip (TP) [4] = assay: Pre-emergence herbicide test; type: in vivo, Brassica sp.; details: Brassica rapa, pre-emergence, 336 h, two weeks after treatment; for pest or weed control at 8966.8 g/ha: 8 lb/acre
Protocol: (§12) Turnip (TP)--Brassica sp.
as §2, §3, §4, §5, §6

Cotton (CT) [5] = assay: Pre-emergence herbicide test; type: in vivo, Gossypium hirsutum var. DPL smooth leaf; details: Gossypium hirsutum, 336 h, two weeks after treatment; for pest or weed control at 8966.8 g/ha: 8 lb/acre
Protocol: (§13) Cotton (CT)--Gossypium hirsutum var. DPL smooth leaf
as §2, §8, §9, §10, §5, §6

Corn (CN) [6] = assay: Pre-emergence herbicide test; type: in vivo; details: Zea mays, 336 h, two weeks after treatment; for pest or weed control at 8966.8 g/ha: 8 lb/acre
Protocol: as §2, §8, §9, §10, §5, §6

Bean (BN) [7] = assay: Pre-emergence herbicide test; type: in vivo, Phaseolus vulgaris var. Black Valentine; details: Phaseolus vulgaris, 336 h, two weeks after treatment; for pest or weed control at 8966.8 g/ha: 8 lb/acre
Protocol: (§14) Bean (BN)--Phaseolus vulgaris var. Black Valentine
as §2, §8, §9, §10, §5, §6

Crabgrass (CG) [8] = assay: Post-emergence herbicide test; type: in vivo, Digitaria sanquinalis; details: Digitaria sanguinalis, post-emergence, 336 h, two weeks after treatment; for pest or weed control at 8966.8 g/ha: 8 lb/acre
Protocol: as §1, §2
(§15) Planting dates for the post-emergence phase were varied so that all seedlings would reach the desired stage of development simultaneously. The proper stage of seedling development for treatment in the post-emergence phase is as follows:
as §3, §4, §5, §6

Johnson grass (JG) [9] = assay: Post-emergence herbicide test; type: in vivo, Sorgum helepense; details: Sorghum halepense, 336 h, two weeks after treatment; for pest or weed control at 8966.8 g/ha: 8 lb/acre
Protocol: as §7, §2, §15, §8, §9, §10, §5, §6

Barnyard grass (BG) [10] = assay: Post-emergence herbicide test; type: in vivo; details: Echinochloa crus-galli, 336 h, two weeks after treatment; for pest or weed control at 8966.8 g/ha: 8 lb/acre
Protocol: as §11, §2, §15, §8, §9, §10, §5, §6

Turnip (TP) [11] = assay: Post-emergence herbicide test; type: in vivo, Brassica sp.; details: Brassica rapa, post-emergence, 336 h, two weeks after treatment; for pest or weed control at 8966.8 g/ha: 8 lb/acre
Protocol: as §12, §2, §15
Pigweed and turnips: 1 or 2 true leaves above visible cotyledons.
as §3, §4, §5, §6

Cotton (CT) [12] = assay: Post-emergence herbicide test; type: in vivo, Gossypium hirsutum var. DPL smooth leaf; details: Gossypium hirsutum, post-emergence, 336 h, two weeks after treatment; for pest or weed control at 8966.8 g/ha: 8 lb/acre
Protocol: as §13, §2, §15
Cotton: first true leaf 1' in length; expanded cotyledons.
as §3, §9, §10, §5, §6

Corn (CN) [13] = assay: Post-emergence herbicide test; type: in vivo; details: Zea mays, 336 h, two weeks after treatment; for pest or weed control at 8966.8 g/ha: 8 lb/acre
Protocol: as §2, §15, §8, §9, §10, §5, §6

Bean (BN) [14] = assay: Post-emergence herbicide test; type: in vivo, Phaseolus vulgaris var. Black Valentine; details: Phaseolus vulgaris, post-emergence, 336 h, two weeks after treatment; for pest or weed control at 8966.8 g/ha: 8 lb/acre
Protocol: as §14, §2, §15
Beans: primary leaves expanded, growing point at primary leaf nodes.
as §3, §9, §10, §5, §6

| SMILES | pest or weed control at 8966.8 g/ha (Crabgrass (CG) [1]) | pest or weed control at 8966.8 g/ha (Johnson grass (JG) [2]) | pest or weed control at 8966.8 g/ha (Barnyard grass (BG) [3]) | pest or weed control at 8966.8 g/ha (Turnip (TP) [4]) | pest or weed control at 8966.8 g/ha (Cotton (CT) [5]) | pest or weed control at 8966.8 g/ha (Corn (CN) [6]) | pest or weed control at 8966.8 g/ha (Bean (BN) [7]) | pest or weed control at 8966.8 g/ha (Crabgrass (CG) [8]) | pest or weed control at 8966.8 g/ha (Johnson grass (JG) [9]) | pest or weed control at 8966.8 g/ha (Barnyard grass (BG) [10]) | pest or weed control at 8966.8 g/ha (Turnip (TP) [11]) | pest or weed control at 8966.8 g/ha (Cotton (CT) [12]) | pest or weed control at 8966.8 g/ha (Corn (CN) [13]) | pest or weed control at 8966.8 g/ha (Bean (BN) [14]) | further results |
| --- | --- | --- | --- | --- | --- | --- | --- | --- | --- | --- | --- | --- | --- | --- | --- |
| CNC(=O)Nc1nnc(-c2ccc(Cl)cc2Cl)s1 [Example 75] | 0% | 0% | 0% | 40% | 30% | 0% | 100% | 50% | 30% | 40% | 80% | 50% | 30% | 100% | – |
| CNC(=O)Nc1nnc(-c2ccc(C)cc2)s1 [Example 76] | 20% | 0% | 30% | 40% | 100% | 50% | 80% | 40% | 30% | 40% | 60% | 50% | 30% | 50% | – |
| CCCCCCCCSc1nnc(NC(=O)NC)s1 [Example 78] | – | – | – | – | – | – | – | – | – | – | – | – | – | – | pest or weed control (Crabgrass (CG) [1]; 1 lb/acre): 20%; pest or weed control at 1120.85 g/ha (Johnson grass (JG) [2]; 1 lb/acre): 0%; pest or weed control at 1120.85 g/ha (Barnyard grass (BG) [3]; 1 lb/acre): 0%; pest or weed control at 1120.85 g/ha (Turnip (TP) [4]; 1 lb/acre): 0%; pest or weed control at 1120.85 g/ha (Cotton (CT) [5]; 1 lb/acre): 30%; pest or weed control at 1120.85 g/ha (Corn (CN) [6]; 1 lb/acre): 0%; pest or weed control at 1120.85 g/ha (Bean (BN) [7]; 1 lb/acre): 80%; pest or weed control at 1120.85 g/ha (Crabgrass (CG) [8]; 1 lb/acre): 30%; pest or weed control at 1120.85 g/ha (Johnson grass (JG) [9]; 1 lb/acre): 30%; pest or weed control at 1120.85 g/ha (Barnyard grass (BG) [10]; 1 lb/acre): 40%; pest or weed control at 1120.85 g/ha (Turnip (TP) [11]; 1 lb/acre): 100%; pest or weed control at 1120.85 g/ha (Cotton (CT) [12]; 1 lb/acre): 80%; pest or weed control at 1120.85 g/ha (Corn (CN) [13]; 1 lb/acre): 40%; pest or weed control at 1120.85 g/ha (Bean (BN) [14]; 1 lb/acre): 100% |
| CCSCCSc1nnc(NC(=O)NC)s1 [Example 80] | 50% | 20% | 20% | 0% | 50% | 0% | 100% | 90% | 60% | 50% | 100% | 80% | 0% | 100% | – |
